The values below come from ChEMBL document CHEMBL2069166, “β-Lactones Inhibit N-acylethanolamine Acid Amidase by S-Acylation of the Catalytic N-Terminal Cysteine” (ACS Med Chem Lett, 2012).

The structures appear in SMILES notation. Active and inactive are the calls of the source. The calls are words filed in the database; no cut-off is given here.

Assay [1] concerns the target T1, N-acylethanolamine-hydrolyzing acid amidase (Homo sapiens, UniProt Q02083).
T1 sequence (Q02083 whole entry): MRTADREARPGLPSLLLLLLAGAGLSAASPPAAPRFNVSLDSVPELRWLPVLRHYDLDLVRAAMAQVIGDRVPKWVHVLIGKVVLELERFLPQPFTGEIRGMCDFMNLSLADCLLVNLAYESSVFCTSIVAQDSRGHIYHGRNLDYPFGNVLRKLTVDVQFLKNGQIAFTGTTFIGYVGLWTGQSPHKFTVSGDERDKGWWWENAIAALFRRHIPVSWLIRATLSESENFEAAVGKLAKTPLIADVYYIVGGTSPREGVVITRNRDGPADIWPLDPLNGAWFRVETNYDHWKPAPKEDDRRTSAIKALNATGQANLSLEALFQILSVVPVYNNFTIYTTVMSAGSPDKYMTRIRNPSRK
In words: Inhibition of human recombinant His6-tagged NAAA expressed in HEK293 cells using 10-cis-heptadecenoylethanolamide as substrate after 30 mins by UPLC/MS analysis.

In assay [2] the target is T2, N-acylethanolamine-hydrolyzing acid amidase (Homo sapiens) (UniProt Q02083).
T2 sequence (whole entry): T1 sequence (Q02083 whole entry)
The settings on record: HEK293, 10 to 30 nM.

The target in assay [3] is T3, Fatty-acid amide hydrolase 1 (Rattus norvegicus) (UniProt P97612).
T3 sequence (whole entry): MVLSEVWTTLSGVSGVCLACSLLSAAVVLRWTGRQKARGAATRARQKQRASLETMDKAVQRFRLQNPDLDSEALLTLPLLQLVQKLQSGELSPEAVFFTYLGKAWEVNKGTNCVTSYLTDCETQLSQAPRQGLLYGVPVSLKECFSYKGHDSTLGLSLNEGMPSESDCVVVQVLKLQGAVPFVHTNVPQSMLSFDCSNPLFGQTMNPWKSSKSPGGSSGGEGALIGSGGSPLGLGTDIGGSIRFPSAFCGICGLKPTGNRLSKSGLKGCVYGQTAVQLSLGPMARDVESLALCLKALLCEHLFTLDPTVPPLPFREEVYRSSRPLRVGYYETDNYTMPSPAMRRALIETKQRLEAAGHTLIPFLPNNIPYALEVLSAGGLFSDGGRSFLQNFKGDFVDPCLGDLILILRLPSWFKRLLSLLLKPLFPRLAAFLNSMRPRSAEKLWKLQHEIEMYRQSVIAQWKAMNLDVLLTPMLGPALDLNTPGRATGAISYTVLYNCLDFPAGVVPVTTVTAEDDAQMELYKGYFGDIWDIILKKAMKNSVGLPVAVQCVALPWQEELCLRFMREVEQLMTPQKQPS
In words: Inhibition of FAAH in rat brain homogenate using [3H]anandamide as substrate up to 30 uM after 30 mins by liquid scintillation counting. The assay is classed as tissue-based.

The target in assay [4] is T2, N-acylethanolamine-hydrolyzing acid amidase (Homo sapiens). The settings on record: HEK293, 100 nM.
The target of assay [5] is T4, Acid ceramidase (Homo sapiens) (UniProt Q13510).
T4 sequence (whole entry): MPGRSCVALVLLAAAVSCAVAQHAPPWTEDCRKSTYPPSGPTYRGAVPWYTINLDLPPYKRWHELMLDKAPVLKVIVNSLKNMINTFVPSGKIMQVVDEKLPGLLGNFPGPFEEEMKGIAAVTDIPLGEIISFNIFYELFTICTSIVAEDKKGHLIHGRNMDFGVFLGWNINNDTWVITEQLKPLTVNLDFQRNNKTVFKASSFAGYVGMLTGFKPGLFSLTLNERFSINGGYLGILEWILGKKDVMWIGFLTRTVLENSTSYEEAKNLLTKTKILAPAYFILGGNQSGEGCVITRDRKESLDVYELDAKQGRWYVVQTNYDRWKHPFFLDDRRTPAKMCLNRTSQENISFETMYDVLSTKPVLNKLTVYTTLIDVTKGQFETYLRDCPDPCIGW
In words: Inhibition of human acid ceramidase expressed in HEK293 cells up to 30 uM using N-lauroyl- ceramide substrate by UPLC/MS analysis. It counts as cell-based.

Assay [6] concerns the target T2, N-acylethanolamine-hydrolyzing acid amidase (Homo sapiens). Kind of assay: Binding affinity to human recombinant His6-tagged NAAA expressed in HEK293 cells assessed as formation of peptide adduct by MS/MS […] analysis. It counts as cell-based.

Take `C[C@@H]1OC(=O)[C@@H]1NC(=O)OCCCCCc1ccccc1`: the IC50 in assay [1] stood at 7.3 nM. Further, the inhibition result in assay [2] and in assay [4] was “Active” throughout. Also, the inhibition result in assay [3] and in assay [5] was “inactive” each time.

Consider `C[C@@H]1OC(=O)[C@@H]1NC(=O)CCCCCCc1ccccc1`, for which, in assay [1], the IC50 is 314 nM. Also, the result in assay [6] was Active.
